Assay results published in ChEMBL document CHEMBL1133251, “Synthesis and biological evaluation of 1-azabicyclo-[3.2.1]octanes: new dopamine transporter inhibitors” (Bioorg Med Chem Lett, 2000).
Blank lines part the entries; values can stand above or below the molecule they belong to.

Tests used:
[1] = target: T1, Sodium-dependent dopamine transporter (Rattus norvegicus, UniProt P23977); assay: Inhibition of [3H]- Mazindol binding to dopamine transporter of rat striatal membrane.
[2] = target: T1, Sodium-dependent dopamine transporter; assay: Inhibition of [3H]DA binding to dopamine transporter of rat brain synaptosomes; format: subcellular
[3] = target: Norepinephrine transporter (Rattus norvegicus, UniProt Q9WTR4); assay: Inhibition of [3H]NE binding to norepinephrine transporter of rat brain synaptosomes; format: subcellular
Chain of Norepinephrine transporter (Q9WTR4 whole entry): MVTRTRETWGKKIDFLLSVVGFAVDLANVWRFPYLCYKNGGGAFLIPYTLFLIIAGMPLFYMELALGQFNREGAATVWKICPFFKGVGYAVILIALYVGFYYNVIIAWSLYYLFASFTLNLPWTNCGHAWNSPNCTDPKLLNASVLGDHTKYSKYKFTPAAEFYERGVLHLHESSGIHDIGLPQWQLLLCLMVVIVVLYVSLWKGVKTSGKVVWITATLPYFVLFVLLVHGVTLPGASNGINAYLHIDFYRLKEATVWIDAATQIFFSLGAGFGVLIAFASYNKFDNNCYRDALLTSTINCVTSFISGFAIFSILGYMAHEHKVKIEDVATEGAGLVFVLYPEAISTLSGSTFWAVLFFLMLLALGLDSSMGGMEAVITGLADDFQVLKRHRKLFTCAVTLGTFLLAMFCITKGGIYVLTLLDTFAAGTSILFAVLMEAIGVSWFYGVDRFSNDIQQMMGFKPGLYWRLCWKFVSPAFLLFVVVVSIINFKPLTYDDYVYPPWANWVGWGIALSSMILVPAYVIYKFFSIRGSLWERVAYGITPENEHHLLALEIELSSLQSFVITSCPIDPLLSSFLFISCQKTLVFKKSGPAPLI

[4] = target: Sodium-dependent serotonin transporter (Rattus norvegicus, UniProt P31652); assay: Inhibition of [3H]-5-HT binding to serotonin transporter of rat brain synaptosomes; format: subcellular
Chain of Sodium-dependent serotonin transporter (P31652 whole entry): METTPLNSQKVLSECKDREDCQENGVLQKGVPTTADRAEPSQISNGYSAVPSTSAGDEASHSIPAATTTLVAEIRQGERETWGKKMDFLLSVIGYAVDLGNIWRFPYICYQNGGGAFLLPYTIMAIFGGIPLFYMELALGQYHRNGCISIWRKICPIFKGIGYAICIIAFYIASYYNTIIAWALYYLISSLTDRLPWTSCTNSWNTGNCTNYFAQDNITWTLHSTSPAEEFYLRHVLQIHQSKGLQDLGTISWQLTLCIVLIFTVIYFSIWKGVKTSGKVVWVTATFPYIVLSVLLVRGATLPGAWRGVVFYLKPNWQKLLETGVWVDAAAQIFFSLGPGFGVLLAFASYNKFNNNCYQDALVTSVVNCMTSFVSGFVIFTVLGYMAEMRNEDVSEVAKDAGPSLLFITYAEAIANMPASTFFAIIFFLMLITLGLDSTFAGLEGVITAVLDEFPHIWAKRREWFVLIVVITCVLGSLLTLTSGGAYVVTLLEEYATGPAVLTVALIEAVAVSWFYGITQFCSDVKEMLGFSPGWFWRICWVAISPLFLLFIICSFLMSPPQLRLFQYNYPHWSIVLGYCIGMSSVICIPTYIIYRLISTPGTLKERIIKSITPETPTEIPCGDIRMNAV

T1 sequence (P23977 whole entry): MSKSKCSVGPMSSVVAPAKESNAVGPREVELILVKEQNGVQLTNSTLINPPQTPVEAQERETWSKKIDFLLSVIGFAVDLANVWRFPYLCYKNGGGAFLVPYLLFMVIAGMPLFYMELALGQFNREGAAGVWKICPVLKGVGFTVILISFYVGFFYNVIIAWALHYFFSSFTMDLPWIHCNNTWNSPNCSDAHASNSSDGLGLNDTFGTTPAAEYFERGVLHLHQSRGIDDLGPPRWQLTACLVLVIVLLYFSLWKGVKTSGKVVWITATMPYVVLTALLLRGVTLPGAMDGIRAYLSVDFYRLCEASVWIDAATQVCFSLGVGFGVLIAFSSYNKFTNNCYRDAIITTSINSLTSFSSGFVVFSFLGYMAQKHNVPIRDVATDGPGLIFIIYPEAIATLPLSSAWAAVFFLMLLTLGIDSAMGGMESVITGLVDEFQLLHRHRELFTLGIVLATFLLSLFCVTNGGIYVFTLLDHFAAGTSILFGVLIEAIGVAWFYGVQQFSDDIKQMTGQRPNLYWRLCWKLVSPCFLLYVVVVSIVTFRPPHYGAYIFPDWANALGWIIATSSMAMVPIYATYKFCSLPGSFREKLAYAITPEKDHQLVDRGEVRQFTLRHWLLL

Structure (SMILES): CC(C)(C)O/N=C1\CN2CC[C@@H](c3ccc(Cl)cc3)C1C2 (some centres undefined)
Ki [1]: 641 nM
Ki [2]: 725 nM
Ki [3]: 287 nM
Ki [4]: 137 nM

Structure (SMILES): CO/N=C1/CN2CC[C@H](c3ccc(Cl)cc3)C1C2 (some centres undefined)
Ki [3]: 240 nM
Ki [4]: 856 nM

Structure (SMILES): CO/N=C1/CN2CC[C@@H](c3ccc(Cl)cc3)C1C2 (some centres undefined)
Ki [3]: 232 nM
Ki [4]: > 2000 nM

Structure (SMILES): Clc1ccc([C@@H]2CCN3C/C(=N\OCCCc4ccccc4)C2C3)cc1 (some centres undefined)
Ki [1]: 53 nM
Ki [2]: 41 nM
Ki [3]: 483 nM
Ki [4]: 292 nM

Ki [2]: 1860 nM
Ki [3]: 1550 nM
Ki [4]: 117 nM
Structure (SMILES): Clc1ccc([C@@H]2CCN3C/C(=N\OCc4ccccc4)C2C3)cc1 (some centres undefined)

Structure (SMILES): CN1CCC(c2ccc(Cl)cc2)C(C(=O)OCCC(c2ccccc2)c2ccccc2)C1 (single isomer, unassigned; (+))
Ki [1]: 420 nM
Ki [2]: 1160 nM
Ki [3]: 3140 nM
Ki [4]: 2590 nM

Structure (SMILES): CN1CCC(c2ccc(Cl)cc2)C(C(=O)OCCCCCc2ccccc2)C1 (single isomer, unassigned; (+))
Ki [1]: 52 nM
Ki [2]: 53 nM
Ki [3]: 382 nM
Ki [4]: 1790 nM

Structure (SMILES): CO/N=C1\CN2CC[C@@H](c3ccc(Cl)cc3)C1C2 (single isomer, unassigned; (+))
Ki [3]: > 4000 nM
Ki [4]: 1790 nM

Structure (SMILES): COC(=O)C1CN(C)CCC1c1ccc(Cl)cc1 (single isomer, unassigned; (+))
Ki [1]: 248 nM
Ki [2]: 228 nM
Ki [3]: 90 nM
Ki [4]: 5880 nM

Structure (SMILES): CN1CCC(c2ccc(Cl)cc2)C(C(=O)OCCCc2ccccc2)C1 (single isomer, unassigned; (+))
Ki [1]: 1490 nM
Ki [2]: 1420 nM
Ki [3]: 72 nM
Ki [4]: 2160 nM

Structure (SMILES): CO/N=C1\CN2CC[C@H](c3ccc(Cl)cc3)C1C2 (stereo in doubt; (+)-7)
Ki [3]: 871 nM
Ki [4]: 2640 nM

Structure (SMILES): CO/N=C1\CN2CC[C@H](c3ccc(Cl)cc3)C1C2 (stereo in doubt; (-)-6)
Ki [3]: 305 nM
Ki [4]: 503 nM

Structure (SMILES): CO/N=C1\CN2CC[C@@H](c3ccc(Cl)cc3)C1C2 (stereo in doubt; (-)-7)
Ki [3]: 652 nM
Ki [4]: 2530 nM
